Reference: publication PMC12781162, “Human Protein Z as the Second Known Heme‐Binding Protein from the Endogenous Blood Coagulation Inhibitor System” (Chembiochem, 2025)
“And” between values parts separate entries of the source, which are not always exact repeats. Equal values may be shown once. Read-outs that look alike come from different tables or passages of the source.

What was measured:
[1] = target: coagulation factor VIII (FVIII); design: method as in PMID 3105105, PMID 22471307, PMID 38631156; details: read-out: K D (heme binding to FVIII); cited from earlier work
[2] = Substrate control of the chromogenic assay without thrombin; type: biochemical; details: no thrombin; heme 1 – 1000 nM, PZ 10 nM; thrombin = 100 %
Experimental: Herein, an earlier established chromogenic thrombin amidolytic activity assay system was thus used, inspired by Hogg and Stenflo.^[ [19] ^, [28] ^] PZ (final concentration: 10 nM) was first incubated for 30 min with different heme concentrations (final concentrations: 1–1000 nM). Afterward, the heme–PZ mixture was incubated with thrombin for 10 min and the PZ–thrombin mixture (50 µL; final thrombin concentration: 15 nM) was transferred onto a 96‐well plate (Greiner Bio‐One GmbH). Finally, 5 µL of the substrate solution (H‐D‐Phe‐Pip‐Arg‐pNA x 2 HCl (S‐2238); final concentration: 273 µM) was added. Immediately, kinetic measurements at 405 nm were started, using an Infinite 200 Pro spectrophotometer. Heme only, thrombin only, and PZ‐heme only served as controls. For evaluation, the thrombin activity was determined as the change of absorbance per second and always normalized against the basal thrombin activity without PZ. Data were analyzed as the mean of triplicate and the IC50 was calculated by nonlinear regression (GraphPad Prism, version 10.5.0). […]
thrombinheme (0 nM)heme (1 nM) thrombin heme (3.16 nM)heme (10 nM)heme (31.6 nM)heme (100 nM)heme (316 nM)heme (1000 nM)PZ+heme (0 nM)PZ+heme (1 nM) PZ+heme (3.16 nM)PZ+heme (10 nM)PZ+heme (31.6 nM)PZ+heme (100 nM)PZ+heme (316 nM)PZ+heme (1000 nM)
Figure S5. […]

PZ = target: T1, PZ (Homo sapiens, UniProt P22891); assay: aPTT-based one-stage clotting assay: anticoagulant function of PZ against FXa in the presence of heme; type: biochemical; details: PZ 32 nM, FXa 0.1 nM; for impact alone on the procoagulant function of FXa or on clotting of pure plasma (aPTT): controls, heme 0.06 – 20 µM
T1 construct: purchased CellSystems GmbH HCPZ-0220 (PZ); HCXA-0060 (FXa)
T1 sequence (P22891 41-400): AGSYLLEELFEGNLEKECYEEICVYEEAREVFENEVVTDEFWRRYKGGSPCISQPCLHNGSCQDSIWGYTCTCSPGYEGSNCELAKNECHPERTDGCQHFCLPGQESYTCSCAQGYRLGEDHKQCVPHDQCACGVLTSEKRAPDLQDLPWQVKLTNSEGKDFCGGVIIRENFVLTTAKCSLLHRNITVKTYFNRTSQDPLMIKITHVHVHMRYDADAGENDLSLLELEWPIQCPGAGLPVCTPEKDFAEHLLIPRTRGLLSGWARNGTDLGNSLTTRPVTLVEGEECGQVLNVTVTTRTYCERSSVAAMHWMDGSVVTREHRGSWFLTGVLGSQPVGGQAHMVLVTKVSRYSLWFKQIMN
Experimental: To estimate an effect on molecular level, the structure of the PZ–ZPI complex (PDB: 3H5C^[ [42] ^]) was first inspected with heme attached to PZ. The anticoagulant function of PZ was then analyzed in the presence of heme by a one‐stage clotting assay, which was inspired by previous work from us and others.^[ [19] ^, [27] ^] The aPTT‐based assay was performed with the ball coagulometer KC 4 A (Amelung, Lemgo, Germany). PZ (320 nM) was preincubated with different concentrations of heme (0–100 µM) for 30 min in 1x PBS, pH 7.4. Afterward, 50 µL of the PZ–heme mixture was incubated with 50 µL of Actin FSL, 50 µl CaCl2 (30 mM), and 50 µL FXa (0.5 nM) at 37 °C for 3 min. Finally, 50 µL citrated pooled plasma was added and the clotting time was automatically recorded. The following mixtures served as controls: 1) 50 µL PBS‐heme + 50 µL Actin FSL + 50 µL CaCl2 + 50 µL FXa + 50 µL citrated plasma, 2) 50 µL PBS‐heme + 50 µL Actin FSL + 50 µL CaCl2 + 50 µL PBS + 50 µL citrated plasma, 3) 50 µL PZ–heme + 50 µL Actin FSL + 50 µL CaCl2 + 50 µL PBS + 50 µL citrated plasma, 4) 50 µL PZ‐PBS + 50 µL Actin FSL + 50 µL CaCl2 + 50 µL FXa + 50 µL citrated plasma, 5) 50 µL PZ‐PBS + 50 µL Actin FSL + 50 µL CaCl2 + 50 µL PBS + 50 µL citrated plasma, 6) 50 µL PBS + 50 µL Actin FSL + 50 µL CaCl2 + 50 µL FXa + 50 µL citrated plasma, and 7) 50 µL PBS + 50 µL Actin FSL + 50 µL CaCl2 + 50 µL PBS + 50 µL citrated plasma. Final concentrations in the approach were 6 mM CaCl2, 0–20 µM heme, 32 nM and PZ, 0.1 nM FXa. Data were normalized against the clotting time of citrated plasma only (control (7)) and evaluated as the mean of triplicates. The IC50 was determined by fitting the curves with nonlinear regression (GraphPad Prism, version 10.5.0).

thrombin = thrombin (Homo sapiens, UniProt P00734); assay: SPR binding of porphyrins to immobilized thrombin; design: human α‐thrombin (HCT‐0020); purchased CellSystems GmbH HCT-0020; details: heterogeneous ligand model
Experimental: SPR experiments were conducted on a Biacore 8K instrument (Cytiva) to investigate the interaction of PZ with heme, as established before.^[ [19] ^, [35] ^, [37] ^, [43] ^] In brief, PZ (10 µg mL^−1) was dissolved in 10 mM sodium acetate buffer (pH 3.5) and immobilized onto a CM5 sensor chip via standard amine coupling, resulting in a final immobilization level of 767 RU. Heme (stock solution in 30 mM NaOH) was further diluted in running buffer (10 mM HEPES, 150 mM NaCl, and 0.05% Tween 20, pH 7.4). The same was performed with zinc (II) protoporphyrin IX and protoporphyrin IX (Frontier Scientific). Binding kinetics were assessed by injecting seven increasing concentrations of heme (187.5–12,000 nM) in a single‐cycle kinetics format at 25 °C and a flow rate of 30 µL min^−1. Data analysis was performed by global fitting using Biacore Insight Evaluation Software, version 3.0.12.15655 (Cytiva).
Figure S7. Heme binds to thrombin. For SPR analysis, thrombin (10 µg/ml) was dissolved in 10 mM sodium acetate buffer (pH 6.0) and immobilized onto a CM5 sensor chip via standard amine coupling, resulting in a final immobilization level of 1826.1 RU. Binding kinetics were assessed by injecting six increasing concentrations of heme (187.5 – 6,000 nM) in a single-cycle kinetics format at 25°C and a flow rate of […]
transient nature of heme binding to thrombin. […]

fibrinogen = target: fibrinogen; design: method as in PMID 29322134, PMID 27229173; details: read-out: K D (heme binding to fibrinogen); cited from earlier work

heme level at which the procoagulant function of FXa was restored (PZ): ≥ 2 µM
IC50 (PZ; heme 0.06–20 µM, citrated pooled plasma, read-out: IC50 (inhibition of the anticoagulant function of PZ against FXa)): 0.83 ± 0.21 µM
impact alone on the procoagulant function of FXa or on clotting of pure plasma (aPTT) (PZ): did not exert any significant impact
impact alone on the procoagulant function of FXa or on clotting of pure plasma (aPTT) (PZ; listed as Heme): did neither affect
Kd (thrombin; read-out: KD1 (porphyrin binding to thrombin)): 0.0929 µM
Kd (thrombin; read-out: KD2 (porphyrin binding to thrombin)): 0.709 µM
Substance: Hemin [heme]
Kd [1]: 0.002 to 0.013 µM
relative amidolytic activity toward substrate S-2238 [2]: ~ 0%
Kd (fibrinogen): ~3 µM and ~3.3 µM
